Results from PubChem BioAssay (NCI).
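Test compounds were applied to cells in 96-well plates for 48 hours at 5 doses. GI50 marks 50% less growth. Definition used: TGI = concentration required for complete inhibition of growth.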

How the values were obtained:
Assay in all cases: inhibition of tumour cell growth, NCI panel, 48 h
SN12C renal = system: SN12C renal
DU-145 prostate = system: DU-145 prostate
SK-MEL-5 melanoma = system: SK-MEL-5 melanoma
PC-3 prostate = system: PC-3 prostate
U251 CNS = system: U251 CNS
NCI-H522 lung = system: NCI-H522 lung
A549 NSCLC = system: A549 NSCLC
SW-620 colon = system: SW-620 colon
SF-539 CNS = system: SF-539 CNS
MOLT-4 leukemia = system: MOLT-4 leukemia
BT-549 breast = system: BT-549 breast
ACHN renal = system: ACHN renal
RPMI-8226 leukemia = system: RPMI-8226 leukemia
T-47D breast = system: T-47D breast
HOP-62 NSCLC = system: HOP-62 NSCLC
M14 melanoma = system: M14 melanoma
MALME-3M melanoma = system: MALME-3M melanoma
HCT-116 colon = system: HCT-116 colon
SF-268 CNS = system: SF-268 CNS
SK-MEL-2 melanoma = system: SK-MEL-2 melanoma
SK-MEL-28 melanoma = system: SK-MEL-28 melanoma
NCI-H460 lung = system: NCI-H460 lung
NCI/ADR-RES ovarian = system: NCI/ADR-RES ovarian
786-0 renal = system: 786-0 renal
OVCAR-3 ovarian = system: OVCAR-3 ovarian
SNB-19 CNS = system: SNB-19 CNS
MDA-MB-435 = system: MDA-MB-435
HS 578T breast = system: HS 578T breast
LOX IMVI melanoma = system: LOX IMVI melanoma

Question: What does the source list for `C#Cc1cccc(Oc2ccc(NC(=O)CCl)cc2)c1`?
Answer: GI50 (SN12C renal): > 82.5 µM; TGI (SN12C renal): > 82.5 µM; GI50 (DU-145 prostate): > 82.5 µM; TGI (DU-145 prostate): > 82.5 µM; GI50 (SK-MEL-5 melanoma): 33.6 µM; TGI (SK-MEL-5 melanoma): > 82.5 µM; GI50 (PC-3 prostate): > 82.5 µM; TGI (PC-3 prostate): > 82.5 µM; GI50 (U251 CNS): > 82.5 µM; TGI (U251 CNS): > 82.5 µM; GI50 (NCI-H522 lung): 33.5 µM; TGI (NCI-H522 lung): > 82.5 µM; GI50 (A549 NSCLC): > 82.5 µM; TGI (A549 NSCLC): > 82.5 µM; GI50 (SW-620 colon): 24.8 µM; TGI (SW-620 colon): > 82.5 µM; GI50 (SF-539 CNS): > 82.5 µM; TGI (SF-539 CNS): > 82.5 µM; GI50 (MOLT-4 leukemia): 10.8 µM; TGI (MOLT-4 leukemia): 77.1 µM; GI50 (BT-549 breast): 37.2 µM; TGI (BT-549 breast): > 82.5 µM; GI50 (ACHN renal): > 82.5 µM; TGI (ACHN renal): > 82.5 µM; GI50 (RPMI-8226 leukemia): > 82.5 µM; TGI (RPMI-8226 leukemia): > 82.5 µM; GI50 (T-47D breast): > 82.5 µM; TGI (T-47D breast): > 82.5 µM; GI50 (HOP-62 NSCLC): > 82.5 µM; TGI (HOP-62 NSCLC): > 82.5 µM; GI50 (M14 melanoma): 72.8 µM; TGI (M14 melanoma): > 82.5 µM; GI50 (MALME-3M melanoma): 37.3 µM; TGI (MALME-3M melanoma): > 82.5 µM; GI50 (HCT-116 colon): 30.9 µM; TGI (HCT-116 colon): > 82.5 µM; GI50 (SF-268 CNS): > 82.5 µM; TGI (SF-268 CNS): > 82.5 µM; GI50 (SK-MEL-2 melanoma): > 82.5 µM; TGI (SK-MEL-2 melanoma): > 82.5 µM; GI50 (SK-MEL-28 melanoma): > 82.5 µM; TGI (SK-MEL-28 melanoma): > 82.5 µM; GI50 (NCI-H460 lung): 25.3 µM; TGI (NCI-H460 lung): > 82.5 µM; GI50 (NCI/ADR-RES ovarian): > 82.5 µM; TGI (NCI/ADR-RES ovarian): > 82.5 µM; GI50 (786-0 renal): > 82.5 µM; TGI (786-0 renal): > 82.5 µM; GI50 (OVCAR-3 ovarian): > 82.5 µM; TGI (OVCAR-3 ovarian): > 82.5 µM; GI50 (SNB-19 CNS): > 82.5 µM; TGI (SNB-19 CNS): > 82.5 µM; GI50 (MDA-MB-435): > 82.5 µM; TGI (MDA-MB-435): > 82.5 µM; GI50 (HS 578T breast): > 82.5 µM; TGI (HS 578T breast): > 82.5 µM; GI50 (LOX IMVI melanoma): 18.1 µM
